This is an account of results in patent US5049559A, “Thieno-triazolo-diazepine derivatives useful as anti-ischemic agents” (priority 1989, dated 1991).

Each structure is given as a SMILES string.

Experiment [1] relates to platelet aggregation induced by PAF. Nature of the experiment: Inhibition of platelet aggregation induced by PAF. It counts as cell-based. The settings on record: Oryctolagus cuniculus, male New Zealand rabbits, Table I. As for the experimental part: 1) Inhibition of platelet aggregation induced by PAF
This experimentation was conducted according to the method of R. KINLOUGH. RATHBONE, J. P. CAZENAVE, M. PACKHAM and F. MUSTARD, Lab. Invest. 48, 98, 1980. In this test, New Zealand rabbits were used (male New Zealand rabbits of an average weight of 5 kg).
The determinations are made on a chrono-log Coultronics aggregometer, at […] coupled with a graphic recorder; the results of these determinations (in molecular concentration) are reported on the table I on the central column.

A further experiment concerns the target benzodiazepine receptors. Nature of the experiment: Inhibition of the binding to benzodiazepine receptors. The conditions noted are these: rat brains, 1 hour 30 minutes at 4° C., tracers 3H-RO-15-1788 and 3H-RO-5-4864, Table I, read-out: BDZ receptors. The text has this:
2) Inhibition of the binding to benzodiazepine receptors
The interest of the previous experimentation depends on the results obtained in this experimentation: as a compound of the invention has a benzodiazepine like structure, it is important to check whether the specific benzodiazepine activity would not appear at the dose where platelet aggregation was inhibited.
Therefore, this experimentation has been conducted according to the method of MOHLER H. and RICHARD J. G. Agonist and antagonist benzodiazepine receptor interaction in vitro, Nature, vol. 294, 763-765, 1981.
This experimentation was conducted on rat brains incubated 1 hour 30 minutes at 4° C. using ^3 H-RO-15-1788 and ^3 H-RO-5-4864 (NEN) as tracers and […] and RO-5-4864 as reference antagonists.
The results in molecular concentration are reported in the table I, on the right hand column.

A short description of experiment [2]: Global ischemia on gerbils. The format is in vivo. The conditions noted are these: Meriones unguiculatus, 168 h, carotides clamped 10 minutes, hippocampes one week later, 3H-PK 11195, percentage of protection compared to control. Here is the method:
3) Global ischemia on gerbils For this test, males gerbils were anaesthetized with brietal at the doses of 35 mg/kg IP; thereafter, both carotides were clamped for 10 minutes, then the clamping was released. Treated animals received each 10 mg/kg of the compounds of one of the examples. One week later, the animals were killed and both hippocampes were taken, weighed and frozen at -80° C. After crushing with 1 ml of TRIS-HCl pH 7.4 for 30 seconds, aliquots of each 50 μl of this preparation were incubed in each 1 ml of TRIS-HCl buffer containing ^3 H-PK 11195 at 2 nM (90 Ci/mmole, NENE, Germany) for 1 hour at 25° C. For each preparation, 3 determinations were made. The density of omega 3 sites (marked by the specific ^3 H-PK 11195 marker) are expressed in f-moles of PK 11195/mg of fresh tissues and converted in percentage of protection compared to control.

As usually defined, the inhibition in vivo is the share of the control response that was lost under treatment. In the case of `Cc1nnc2n1-c1sc3c(c1C(c1ccccc1Cl)=NC2)CCN(C(=O)CSC(C)C)C3` [Example 1, 6-(2-chlorophenyl)-9-(isopropylthiomethylcarbonyl)-7,8,9,10-tetrahydro-1-methyl-4H-pyrido [4',3':4,5] thieno [3,2-f] 1,2,4-triazolo [4,3-a] 1,4-diazepine], the IC50 in experiment [1] was 25.3 nM; on benzodiazepine receptors, 6700 nM. The compound also came in with an inhibition in vivo at 10 mg/kg in experiment [2] of 54.2%.
On to `Cc1nnc2n1-c1sc3c(c1C(c1ccccc1Cl)=NC2)CCN(C(=S)CSC(C)C)C3` [Example 2, 6-(2-chlorophenyl)-9-(isopropylthiomethyl-thiocarbonyl)-7,8,9,10-tetrahydro-1-methyl-4H-pyrido [4',3':4,5] thieno [3,2-f] 1,2,4-triazolo [4,3-a] 1,4-diazepine], for which the results for the IC50 (in experiment [1]; on benzodiazepine receptors) were 28.1 nM and 48200 nM, respectively. Testing at 10 mg/kg in experiment [2] gave an inhibition in vivo of 36.3%.
The like results for `Cc1nnc2n1-c1sc3c(c1C(c1ccccc1Cl)=NC2)CCN(C(=O)CSC(C)(C)C)C3` [Example 3, 6-(2-chlorophenyl)-9-(t.butylthiomethyl-carbonyl)-7,8,9, 10-tetrahydro-1-methyl-4H-pyrido [4',3':4,5] thieno [3,2-f] 1,2,4-triazolo[4,3-a] 1,4-diazepine] were, in that order, 16.8 nM, 2300 nM and 34.3%.
The like results for `Cc1nnc2n1-c1sc3c(c1C(c1ccccc1Cl)=NC2)CCN(C(=S)CSC(C)(C)C)C3` [Example 4, 6-(2-chlorophenyl)-9-(t.butylthiomethyl-thiocarbonyl)-7,8,9, 10-tetrahydro-1-methyl-4H-pyrido [4',3':4,5] thieno [3,2-f] 1,2,4-triazolo[4,3-a] 1,4-diazepine] were, in that order, 497 nM, 1550 nM and 38.1%.
As to `CCCCCCCCCCCCCCCCSCC(=O)N1CCc2c(sc3c2C(c2ccccc2Cl)=NCc2nnc(C)n2-3)C1` [Example 5, 6-(2-chlorophenyl)-9-(hexadecylthiomethyl-carbonyl)-7,8,9, 10-tetrahydro-1-methyl-4H-pyrido [4',3':4,5] thieno [3,2-f] 1,2,4-triazolo[4,3-a] 1,4-diazepine], the figures for the IC50 (in experiment [1]; at benzodiazepine receptors) were 7.43 nM and 121 nM, respectively. In experiment [2], this compound had an inhibition in vivo at 10 mg/kg of 29.4%.
With `CCCCCCCCCCCCCCCCSCC(=S)N1CCc2c(sc3c2C(c2ccccc2Cl)=NCc2nnc(C)n2-3)C1` [Example 6, 6-(2-chlorophenyl)-9-(hexadecylthiomethyl-thiocarbonyl); 7,8,9, 10-tetrahydro-1-methyl-4H-pyrido [4',3':4,5] thieno [3,2-f] 1,2,4-triazolo[4,3-a] 1,4-diazepine], the values for the IC50 (in experiment [1]; at benzodiazepine receptors) were 9.46 nM and 910 nM, respectively. In experiment [2], this compound had an inhibition in vivo at 10 mg/kg of 27.8%.
Consider `Cc1nnc2n1-c1sc3c(c1C(c1ccccc1Cl)=NC2)CCN(C(=O)CSc1ccccc1)C3` [Example 7, 6-(2-chlorophenyl)-9-(phenyl-thiomethyl-carbonyl)-7,8,9, 10-tetrahydro-1-methyl-4H-pyrido [4',3':4,5] thieno [3,2-f] 1,2,4-triazolo[4,3-a] 1,4-diazepine], for which the IC50 worked out at 511 nM in experiment [1] and 2100 nM on benzodiazepine receptors. In experiment [2], this compound displayed an inhibition in vivo at 10 mg/kg of 14.8%.
Consider `Cc1nnc2n1-c1sc3c(c1C(c1ccccc1Cl)=NC2)CCN(C(=S)CSc1ccccc1)C3` [Example 8, 6-(2-chorophenyl)-9-(phenyl-thiomethyl-thiocarbonyl)-7,8,9, 10-tetrahydro-1-methyl-4H-pyrido [4',3':4,5] thieno [3,2-f] 1,2,4-triazolo[4,3-a] 1,4-diazepine], for which the IC50 in experiment [1] is 10.5 nM; on benzodiazepine receptors, 7330 nM. The same compound had an inhibition in vivo at 10 mg/kg in experiment [2] of 26.2%.
For the compound `COc1ccc(SCC(=O)N2CCc3c(sc4c3C(c3ccccc3Cl)=NCc3nnc(C)n3-4)C2)cc1` [Example 9, 6-(2-chlorophenyl)-9-(4-methoxyphenylthiomethyl-carbonyl)-7,8,9, 10-tetrahydro-1-methyl-4H-pyrido [4',3':4,5] thieno [3,2-f] 1,2,4-triazolo[4,3-a] 1,4-diazepine], the IC50 is 33.7 nM in experiment [1] and 2700 nM on benzodiazepine receptors. Further, the inhibition in vivo at 10 mg/kg in experiment [2] is 31.2%.
For the compound `COc1ccc(SCC(=S)N2CCc3c(sc4c3C(c3ccccc3Cl)=NCc3nnc(C)n3-4)C2)cc1` [Example 10, 6-(2-chlorophenyl)-9-(4-methoxyphenylthiomethyl-thiocarbonyl)-7,8,9, 10-tetrahydro-1-methyl-4H-pyrido [4',3':4,5] thieno [3,2-f] 1,2,4-triazolo[4,3-a] 1,4-diazepine], the IC50 in experiment [1] was found to be 171 nM; at benzodiazepine receptors, 66000 nM. The compound also gave an inhibition in vivo at 10 mg/kg in experiment [2] of 10.3%.
With `COc1ccc(SCC(=O)N2CCc3c(sc4c3C(c3ccccc3Cl)=NCc3nnc(C)n3-4)C2)cc1OC` [Example 11, 6-(2-chlorophenyl)-9-(3,4-dimethoxyphenylthiomethyl-carbonyl)-7,8,9, 10-tetrahydro-1-methyl-4H-pyrido [4',3':4,5] thieno [3,2-f] 1,2,4-triazolo[4,3-a] 1,4-diazepine], the figures for the IC50 (in experiment [1]; on benzodiazepine receptors) were 26.4 nM and 1400 nM, respectively. Besides, the inhibition in vivo at 10 mg/kg in experiment [2] came out at 46.5%.
As to `COc1ccc(SCC(=S)N2CCc3c(sc4c3C(c3ccccc3Cl)=NCc3nnc(C)n3-4)C2)cc1OC` [Example 12, 6-(2-chlorophenyl)-9-(3,4-dimethoxyphenylthiomethyl-thiocarbonyl)-7,8,9, 10-tetrahydro-1-methyl-4H-pyrido [4',3':4,5] thieno [3,2-f] 1,2,4-triazolo [4,3-a] 1,4-diazepine], the results for the IC50 (in experiment [1]; on benzodiazepine receptors) were 31.4 nM and 870 nM, respectively. Moreover, the inhibition in vivo at 10 mg/kg in experiment [2] is 34.1%.
Turning to `COc1cc(SCC(=O)N2CCc3c(sc4c3C(c3ccccc3Cl)=NCc3nnc(C)n3-4)C2)cc(OC)c1OC` [Example 13, 6-(2-chlorophenyl)-9-(3,4,5-trimethoxyphenylthiomethylcarbonyl)-7,8,9, 10-tetrahydro-1-methyl-4H-pyrido [4',3':4,5] thieno [3,2-f] 1,2,4-triazolo[4,3-a] 1,4-diazepine], the figures for the IC50 (in experiment [1]; at benzodiazepine receptors) were 18.5 nM and 55000 nM, respectively. The compound also displayed an inhibition in vivo at 10 mg/kg in experiment [2] of 32.1%.
Turning to `COc1cc(SCC(=S)N2CCc3c(sc4c3C(c3ccccc3Cl)=NCc3nnc(C)n3-4)C2)cc(OC)c1OC` [Example 14, 6-(2-chlorophenyl)-9-(3,4,5-trimethoxyphenylthiomethyl-thiocarbonyl)-7,8,9, 10-tetrahydro-1-methyl-4H-pyrido [4',3':4,5] thieno [3,2-f] 1,2,4-triazolo [4,3-a] 1,4-diazepine], the figures for the IC50 (in experiment [1]; at benzodiazepine receptors) were 9.22 nM and 1500 nM, respectively. This compound also gave an inhibition in vivo at 10 mg/kg in experiment [2] of 19.7%.
As for `COc1ccc(SCC(=O)N2CCc3c(sc4c3C(c3ccccc3Cl)=NCc3nnc(C)n3-4)C2)c(OC)c1OC` [Example 15, 6-(2-chlorophenyl)-9-(2,3,4-trimethoxyphenylthiomethyl-carbonyl)-7,8,9, 10-tetrahydro-1-methyl-4H-pyrido [4',3':4,5] thieno [3,2-f] 1,2,4-triazolo[4,3-a] 1,4-diazepine], the values for the IC50 (in experiment [1]; on benzodiazepine receptors) were 120 nM and 3600 nM, respectively. Also, testing at 10 mg/kg in experiment [2] gave an inhibition in vivo of 35.8%.
In the same order, the values of `COc1ccc(SCC(=S)N2CCc3c(sc4c3C(c3ccccc3Cl)=NCc3nnc(C)n3-4)C2)c(OC)c1OC` [Example 16, 6-(2-chlorophenyl)-9-(2,3,4-trimethoxyphenylthiomethylthiocarbonyl)-7,8,9, 10-tetrahydro-1-methyl-4H-pyrido [4',3':4,5] thieno [3,2-f] 1,2,4-triazolo [4,3-a] 1,4-diazepine] are 53.5 nM, 600 nM and 29.3%.
As for `Cc1nnc2n1-c1sc3c(c1C(c1ccccc1Cl)=NC2)CCN(C(=O)CSc1ccc(C(C)(C)C)cc1)C3` [Example 17, 6-(2-chlorophenyl)-9-(4-t.butylphenylthiomethyl-carbonyl)-7,8,9, 10-tetrahydro-1-methyl-4H-pyrido [4',3':4,5] thieno [3,2-f] 1,2,4-triazolo[4,3-a] 1,4-diazepine], the results for the IC50 (in experiment [1]; on benzodiazepine receptors) were 8.75 nM and 4700 nM, respectively. This compound also had an inhibition in vivo at 10 mg/kg in experiment [2] of 11.1%.
